{"source": "patent US20030212116A1", "about": "(priority 1999, published 2003)"}
{"compound": "COC(=O)Cc1ccccc1N=C1N(C)CC(=O)N1C", "values": [{"measurement": "melting point", "result": "57 to 59", "unit": "°C"}]}
